These results are taken from PMC9520749, “Novel angiotensin-converting enzyme and pancreatic lipase oligopeptide inhibitors from fermented rice bran” (Frontiers in Nutrition, 2022).

In experiment [1] the target is T1, ACE (Homo sapiens, UniProt P12821).
T1 construct: purchased Sigma Co., St. Louis, Missouri, United States
As to the kind of experiment: ACE inhibitory activity of peptides (FAPGG substrate, absorbance 340 nm). Type of experiment: biochemical. The method, then: (§1) The polypeptide was synthesized by Hangzhou Dangang Biotechnology Co., Ltd (Hangzhou, China). Human ACE, N-[3-(2-furanyl) acryloyl]-l-phenylalanyl glycyl glycine (FAPGG), p-nitrophenyl butyrate (pNPB), and pancreatic lipase were purchased from Sigma Co., St. Louis, Missouri, United States.
(§2) According to the experimental method of Yu Fu et al. ([8]), with slight changes, 50 μL ACE (0.1 U/mL, prepared from borate buffer with pH 8.3 and 80 mM), 50 μL FAPGG (1 mM), and 100 μL borate buffer (80 mM, pH 8.3) were added to a 96-well plate. Then, 100 μL borate buffer was replaced with 1 mg/mL sample, which are three groups of parallel samples, and the initial absorbance values a1 and b1 were measured at 340 nm. Then, the plate was placed at 37°C and reacted for 30 min. The absorbance values a2 and b2 were measured at 340 nm (Multiskan GO, Thermo Scientific, Waltham, MA, USA). The absorbance value was incorporated into the following formula to calculate the inhibition rate of polypeptide against ACE activity:
(1) ACEinhibitionrate (%)=(A-B)/A×100
Where a1 and b1 are initial absorbance values of the blank and sample groups, respectively. a2 and b2 are absorbance values of the blank and sample groups after the reaction, respectively. A = a1–a2; B = b1–b2.

Experiment [2] concerns the target T1, ACE. As to the kind of experiment: Inhibitory kinetic analysis of ACE (Lineweaver-Burk). Type of experiment: biochemical. As to conditions: sample 1 mg/mL, FAPGG 0.2-1 mM; read-out: inhibitory binding constant (Ki), ACE. On the procedure:
(§3) The inhibition kinetics of oligopeptides GLLGY, HWP, and VYGF on ACE and pancreatic lipase were tested to determine their efficiencies. For the ACE inhibition test, the concentration of the samples GLLGY, HWP, and VYGF was 1 mg/mL, and the concentrations of the substrate FAPGG were 0.2, 0.4, 0.6, 0.8, and 1 mM. For the pancreatic lipase inhibition test, the sample HWP concentration was 1 mg/mL and the substrate pNPB concentrations were 1, 2, 3, and 5 mM. The initial velocity data were used to construct the Lineweaver–Burke plots to determine the enzyme Km (Michaelis constant), Vmax (maximum velocity), and Ki (inhibitory binding constant) ([8], [22]).

For experiment [3], the target named is T2, pancreatic lipase (Sus scrofa, UniProt P00591).
T2 construct: purchased Sigma Co., St. Louis, Missouri, United States
T2 sequence (P00591 1-450): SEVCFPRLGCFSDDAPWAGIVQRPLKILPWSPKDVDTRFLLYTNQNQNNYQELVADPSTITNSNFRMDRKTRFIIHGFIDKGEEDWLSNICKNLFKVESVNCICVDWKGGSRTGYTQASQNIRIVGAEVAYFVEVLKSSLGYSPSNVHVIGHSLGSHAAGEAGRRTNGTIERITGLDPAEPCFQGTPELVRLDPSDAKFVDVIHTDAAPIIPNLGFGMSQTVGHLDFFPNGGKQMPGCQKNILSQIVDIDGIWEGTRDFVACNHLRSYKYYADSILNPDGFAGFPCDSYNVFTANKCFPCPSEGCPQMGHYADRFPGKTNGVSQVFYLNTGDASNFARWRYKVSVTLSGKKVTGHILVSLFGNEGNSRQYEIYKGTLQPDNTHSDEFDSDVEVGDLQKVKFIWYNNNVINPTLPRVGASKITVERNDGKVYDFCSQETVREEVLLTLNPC
Description: In vitro simulated gastrointestinal digestion, then pancreatic lipase inhibition. Type of experiment: biochemical. The conditions noted are these: 1 mg/mL, read-out: inhibition rate against pancreatic lipase. The method, then: (§4) According to the method of Magdalena mendoza-s á nchez ([1]). In the blank group, 100 μL of 0.1 M sodium phosphate buffer (pH 7.2), 50 μL pNPB (5 mM), and 50 μL pancreatic lipase (0.2 U/mL) were added to a 96-well plate. In the blank control group, 150 μL sodium phosphate buffer and 50 μL pNPB were added to the 96-well plate. In the sample group, 50 μL sodium phosphate buffer, 50 μL pNPB, 50 μL sample (1 mg/mL), and 50 μL pancreatic lipase were added to the 96-well plate. For the sample blank group, 100 μL sodium phosphate buffer, 50 μL pNPB, and 50 μL sample were added to the 96-well plate. At 37°C, the absorbance values A, B, C, and D were measured at 405 nm after 30 min of reaction. The absorbance values were incorporated into the following formula to calculate the inhibition rate of polypeptide against pancreatic lipase activity:
(§5) Simulated GI digestion through an in vitro pepsin–pancreatin hydrolysis method was carried out ([23]). The oligopeptides GLLGY, HWP, and VYGF were re-dissolved (3% w/v in distilled water) and adjusted to pH 2.0 with 1 M HCl. Then, pepsin (4% weight as received/weight of protein in the powder) was added. The mixture was incubated at 37°C for 2 h. The pH was then adjusted to 5.3 with 0.9 M NaHCO3 solution and further to pH 7.5 with 1 M NaOH. Pancreatin was added (4% weight as received/weight of protein in the powder), and the mixture was further incubated at 37°C for 2 h. To terminate the digestion, the test tubes were kept in boiling water for 10 min. The gastric digests (GDs) and gastric-intestinal digests (GIDs) were obtained through centrifugation (8000 × g, 10 min, 4°C), and then, the supernatants were collected, lyophilized, sealed in plastic bags, and stored at 4°C until further analysis. The ACE and pancreatic lipase inhibitory activities of GDS and GID were measured at a concentration of 1 mg/mL, and the results were expressed as activity (%) relative to that without any treatment (control group, 100%). All determinations were made in triplicate.

The target of experiment [4] is T1, ACE. Description: In vitro simulated gastrointestinal digestion, then ACE inhibition. The conditions noted are these: 1 mg/mL, read-out: inhibition rate against ACE. Type of experiment: biochemical. On the procedure:
as §2, §5

In experiment [5] the target is T2, pancreatic lipase. Description: Inhibitory kinetic analysis of pancreatic lipase (Lineweaver-Burk). The conditions noted are these: sample 1 mg/mL, pNPB 1-5 mM; read-out: inhibitory binding constant (Ki), pancreatic lipase. In kind it is biochemical. On the procedure: as §3
The target in experiment [6] is T2, pancreatic lipase. As to the kind of experiment: Pancreatic lipase inhibitory activity of peptides (pNPB substrate, absorbance 405 nm). Type of experiment: biochemical. On the procedure:
as §1, §4
(2) Pancreaticlipaseinhibitionrate (%)=(1-C-D/A-B)×100
Where A, B, C, and D are absorbance values of the blank, blank control, sample, and sample blank groups, respectively.

The target in experiment [7] is T2, pancreatic lipase. As to conditions: cited from earlier work.

Read-outs that look alike come from different tables or passages of the source. Ends that are not written are not given here. Peptide text beside a SMILES is read from it.

By IC50 is commonly meant the concentration at which inhibition is half-maximal. The term Ki denotes a measure of affinity in units of concentration, obtained from inhibition or displacement. One may read the inhibition as the share of the control response that was lost under treatment.

T1 sequence (P12821 30-1306): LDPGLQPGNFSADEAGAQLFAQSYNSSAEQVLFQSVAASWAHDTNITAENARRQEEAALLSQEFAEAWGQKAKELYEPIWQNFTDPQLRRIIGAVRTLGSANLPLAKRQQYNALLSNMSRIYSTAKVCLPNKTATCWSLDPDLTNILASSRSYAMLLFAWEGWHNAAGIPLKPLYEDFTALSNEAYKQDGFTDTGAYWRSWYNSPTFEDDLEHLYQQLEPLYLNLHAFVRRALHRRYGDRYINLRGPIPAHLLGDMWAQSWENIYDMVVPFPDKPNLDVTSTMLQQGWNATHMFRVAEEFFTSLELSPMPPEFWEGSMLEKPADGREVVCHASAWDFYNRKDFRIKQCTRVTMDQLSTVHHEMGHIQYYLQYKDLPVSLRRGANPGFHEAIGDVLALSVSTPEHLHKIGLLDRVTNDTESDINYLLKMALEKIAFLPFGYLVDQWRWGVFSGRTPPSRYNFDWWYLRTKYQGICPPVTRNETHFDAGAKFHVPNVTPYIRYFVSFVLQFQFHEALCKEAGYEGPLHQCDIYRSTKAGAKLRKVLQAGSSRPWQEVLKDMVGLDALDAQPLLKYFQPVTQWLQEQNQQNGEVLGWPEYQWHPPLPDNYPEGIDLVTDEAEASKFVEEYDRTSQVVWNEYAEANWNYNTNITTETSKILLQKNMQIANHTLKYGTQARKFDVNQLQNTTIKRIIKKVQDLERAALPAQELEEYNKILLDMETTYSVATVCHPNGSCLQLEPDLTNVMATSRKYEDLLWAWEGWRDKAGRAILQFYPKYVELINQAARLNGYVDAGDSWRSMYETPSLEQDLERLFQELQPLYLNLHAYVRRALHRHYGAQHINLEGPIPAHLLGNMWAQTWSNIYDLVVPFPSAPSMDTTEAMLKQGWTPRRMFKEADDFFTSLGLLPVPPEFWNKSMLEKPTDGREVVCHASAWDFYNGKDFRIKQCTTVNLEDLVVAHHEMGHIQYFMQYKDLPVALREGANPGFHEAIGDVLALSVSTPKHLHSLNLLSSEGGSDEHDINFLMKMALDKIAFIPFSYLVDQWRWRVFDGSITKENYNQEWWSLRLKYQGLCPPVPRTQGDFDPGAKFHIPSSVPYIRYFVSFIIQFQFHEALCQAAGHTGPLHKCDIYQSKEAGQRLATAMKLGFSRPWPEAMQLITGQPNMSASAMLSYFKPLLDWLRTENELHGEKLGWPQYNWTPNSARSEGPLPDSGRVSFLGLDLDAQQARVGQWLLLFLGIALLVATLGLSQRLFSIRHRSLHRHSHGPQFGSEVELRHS

Turning to `N[C@@H](Cc1c[nH]cn1)C(=O)N[C@@H](Cc1c[nH]c2ccccc12)C(=O)N1CCC[C@H]1C(=O)O` [HWP] (H-His-Trp-Pro-OH), the IC50 in experiment [1] is 2280 µM; in experiment [6] (gradient test of concentration, Figure 1C), 9010 µM. Moreover, the values for the Ki in experiment [2] and in experiment [5] were 1340 µM and 2580 µM, respectively. Also, the inhibition at 1000 µg/mL was 18.4% in experiment [3] (after GI digestion); 19.9% in experiment [3] (after gastric digestion); 21.5% in experiment [3] (without GI digestion); 53.6% in experiment [4] (after GI digestion); 54.4% in experiment [4] (after gastric digestion); 57% in experiment [4] (without GI digestion). Moreover, the inhibition at 1000 µg/mL in experiment [6] (at 1 mg/mL, read-out: pancreatic lipase inhibition rate) stood at 20%.

Compound `CC(C)[C@H](N)C(=O)N[C@@H](Cc1ccc(O)cc1)C(=O)NCC(=O)N[C@@H](Cc1ccccc1)C(=O)O` [VYGF] (H-VYGF-OH) showed an IC50 in experiment [1] of 2060 µM. For the same compound, in experiment [2], the Ki was 933 µM. The values for the inhibition at 1000 µg/mL in experiment [4] (after GI digestion), in experiment [4] (after gastric digestion) and in experiment [4] (without GI digestion) were 49.1%, 50.9% and 54.8%, respectively.

On to `O=c1cc(-c2ccc(O)cc2)oc2cc(O)cc(O)c12` [apigenin], for which, in experiment [7], the 50% inhibitory concentration (IC50) was 450 ± 30 µM and the “type of pancreatic lipase inhibition” value is on record as “competitively inhibited”.

GLLGY [GLLGY]: inhibition in experiment [1] was half-maximal at 1920 µM (IC50). In experiment [2], the Ki is 1570 µM. For the same compound, the inhibition at 1000 µg/mL in experiment [4] (after GI digestion) was 51.3%; in experiment [4] (after gastric digestion) it was 52.6%; in experiment [4] (without GI digestion) it was 55.8%.

For Leu-Pro, in experiment [7] (peptide of bovine and camel casein hydrolysates), the “pancreatic lipase inhibitory activity” value is reported as “exhibits pancreatic lipase inhibitory activity”.

In the case of VSTDVNIE [cocoa peptide], the “inhibitory effect on pancreatic lipase” value in experiment [7] (cocoa peptides) is “had inhibitory effect”.
